Data set [1] deals with T1, MRSA PK (Staphylococcus aureus, UniProt Q6GG09).
T1 construct: His tag (pET-28a(+) vector) (N); made in house; host or cells: E. coli BL-21 (DE3)
Description: MRSA PK activity, continuous LDH-coupled assay. In kind it is biochemical, S. aureus (MRSA strain Sanger 252). The settings on record: for inhibition at 10 µM / inhibition at 1 µM: read-out: % inhibition at the highest concentration tested (IC50). The essentials: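 Purified His-tagged MRSA PK (15 nM, E. coli-expressed) started reactions run up to 5 min at 30 °C. Activity was followed continuously by LDH-coupled NADH oxidation at 340 nm, with DMSO ≤1%. IC50 came from four-parameter variable-slope fits.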

Data set [2] has as its system S. aureus ATCC 29213. Description: In vitro susceptibility, broth microdilution MIC. It counts as cell-based, Staphylococcus aureus. The essentials:
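The MIC against S. aureus 29213 was determined by CLSI 2-fold serial broth microdilution in Mueller Hinton broth. Plates were incubated for 18–24 h at 37 °C and read at OD600 with background subtracted. The MIC was the lowest concentration giving complete growth inhibition versus compound-free wells.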

Where [3] appears, read: Staphylococcus aureus, ATCC29213, Table 8, tested at least in duplicate, differing values all given, read-out: MIC.
The mark [4] stands for this setting: Staphylococcus aureus, ATCC29213, Tables 1-6 and text, minimum concentration to give >98% inhibition of growth, read-out: MIC.
[5] abbreviates: Tables 1-6, 2 mM ADP, 10 mM PEP, 15 nM PK, read-out: IC50.

Structures are written as SMILES. ≈ marks a conversion by molar mass, not a printed value. Read-outs that look alike come from different tables or passages of the source. Bounds are passed on as bounds.

We go through 36 compounds from patent US20170216252A1, “ANTI-BACTERIAL PYRUVATE KINASE MODULATOR COMPOUNDS, COMPOSITIONS, USES AND METHODS” (SIMON FRASER UNIVERSITY, priority 2014, published 2017).

T1 sequence (Q6GG09 whole entry): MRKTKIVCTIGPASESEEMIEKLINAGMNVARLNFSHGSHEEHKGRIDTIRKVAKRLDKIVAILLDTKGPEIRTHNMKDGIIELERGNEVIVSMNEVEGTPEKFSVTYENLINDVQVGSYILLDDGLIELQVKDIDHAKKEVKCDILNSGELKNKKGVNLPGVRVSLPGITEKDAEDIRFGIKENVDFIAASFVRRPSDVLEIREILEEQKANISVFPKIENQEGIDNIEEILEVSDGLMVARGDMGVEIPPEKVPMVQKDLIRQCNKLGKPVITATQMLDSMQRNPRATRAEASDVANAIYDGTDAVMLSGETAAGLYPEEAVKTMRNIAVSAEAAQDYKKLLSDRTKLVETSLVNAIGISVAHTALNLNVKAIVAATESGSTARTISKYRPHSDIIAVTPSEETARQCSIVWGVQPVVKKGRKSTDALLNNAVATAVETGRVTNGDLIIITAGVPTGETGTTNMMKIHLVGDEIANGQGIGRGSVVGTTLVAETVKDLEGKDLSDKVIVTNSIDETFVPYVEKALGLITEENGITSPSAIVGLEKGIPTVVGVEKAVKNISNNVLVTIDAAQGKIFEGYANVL

By melting point is commonly meant the temperature of the solid-liquid transition. Regarding `Brc1ccc2[nH]c(-c3cc4ccccc4o3)cc2c1` [Compound 22e, 2-(Benzofuran-2-yl)-5-bromo-1H-indole], the melting point is 236 to 238 °C. The inhibition at 10 µM in data set [1] came out at 45%.

In the case of `Brc1ccc2cc(-c3cccc(-c4cc5ccccc5[nH]4)c3)[nH]c2c1` [Compound 33f, 2-(3-(1H-indol-2-yl)phenyl)-6-bromo-1H-indole], the melting point lay in the range of 224 to 226 °C. For the same compound, the inhibition at 10 µM in data set [1] was found to be 36%.

As a reminder, the MIC is the lowest concentration that inhibits growth of the organism. As a reminder, the IC50 is the concentration needed to halve the response being measured. Turning to `Brc1ccc2cc(/C=C/c3cc(-c4ccccc4)on3)[nH]c2c1` [Compound 105, (E)-3-(2-(6-Bromo-1H-indol-2-yl)vinyl)-5-phenylisoxazole], the MIC in data set [2] (setting [3]) was greater than 64 µg/mL. This compound also registered an IC50 in data set [1] greater than 100000 nM.

With `COC(=O)c1c(C(=O)Nc2ccc(Cl)nc2)[nH]c2cc(Br)ccc12` [Compound 138, Methyl 6-bromo-2-((6-chloropyridin-3-yl)carbamoyl)-1H-indole-3-carboxylate], the MIC in data set [2] (setting [3]) was greater than 64 µg/mL. In data set [1], this compound showed an IC50 of less than 50 nM.

`O=C(Nc1nc2ccc(Br)cc2s1)c1cc2ccccc2[nH]1` [Compound 54, N-(6-Bromobenzo[d]thiazol-2-yl)-1H-indole-2-carboxamide]: in data set [2] (setting [4]), the MIC was greater than 64 µg/mL. For the same compound, the IC50 in data set [1] (setting [5]) was found to be 11.1 nM.

Consider `O=C(c1c(/C=C/c2ccc(Cl)cc2)[nH]c2cc(Br)c(F)cc12)C(F)(F)F` [Compound 175, (E)-1-(6-Bromo-2-(4-chlorostyryl)-5-fluoro-1H-indol-3-yl)-2,2,2-trifluoroethanone], for which the minimal inhibitory concentration (MIC) in data set [2] (setting [3]) stood at 2 µg/mL (≈ 4.48 µM). Besides, the IC50 in data set [1] fell in the range of 100 to 1000 nM.

For `Fc1cc2cc(/C=C/c3ccc(Cl)cc3)[nH]c2cc1Br` [Compound 161, (E)-6-Bromo-2-(4-chlorostyryl)-5-fluoro-1H-indole], the MIC in data set [2] (setting [3]) was greater than 64 µg/mL. In addition, the IC50 in data set [1] was less than 50 nM.

As to `Cc1ccc(/C=C/c2cc3ccc(Br)cc3[nH]2)cn1` [Compound 106, (E)-6-Bromo-2-(2-(6-methylpyridin-3-yl)vinyl)-1H-indole], the MIC in data set [2] (setting [3]) is greater than 64 µg/mL. The compound further registered an IC50 in data set [1] greater than 1000 nM.

As for `O=C(Nc1ccc(Cl)nc1)c1[nH]c2cc(Br)ccc2c1C(=O)O` [Compound 139, 6-Bromo-2-((6-chloropyridin-3-yl)carbamoyl)-1H-indole-3-carboxylic acid], the MIC in data set [2] (setting [3]) is greater than 64 µg/mL. Moreover, the IC50 in data set [1] is 50 to 100 nM.

For the compound `O=C(Nc1nc2ccc(Br)cc2[nH]1)c1cc2cc(Br)ccc2[nH]1` [Compound 79, 5-bromo-N-(6-bromo-1H-benzo[d]imidazol-2-yl)-1H-indole-2-carboxamide], in data set [2] (setting [4]), the MIC is greater than 64 µg/mL. This compound registered an IC50 in data set [1] of 3.5 nM.

On to `Clc1cccc(/C=C/c2cc3ccc(Br)cc3[nH]2)c1` [Compound 96, (E)-6-Bromo-2-(3-chlorostyryl)-1H-indole], for which the minimum inhibitory concentration (MIC) in data set [2] (setting [3]) was greater than 64 µg/mL. The compound further came in with an IC50 in data set [1] of 100 to 1000 nM.

`COC(=O)c1c(NCc2ccc(Cl)cc2)[nH]c2cc(Br)ccc12` [Compound 165, Methyl 6-bromo-2-(4-chlorobenzylamino)-1H-indole-3-carboxylate]: the MIC in data set [2] (setting [3]) worked out at 4 µg/mL (≈ 10.2 µM). Further, the IC50 in data set [1] was greater than 1000 nM.

For `COC(=O)c1cc(Br)cc2[nH]c(-c3cc4c(C(=O)OC)cc(Br)cc4[nH]3)cc12` [Compound 163, Dimethyl 6,6′-dibromo-1H,1′H-[2,2′-biindole]-4,4′-dicarboxylate], the MIC in data set [2] (setting [3]) was greater than 64 µg/mL. Also, the half-inhibitory concentration (IC50) in data set [1] was 50 to 100 nM.

As to `O=C(Nc1nc2ccc(Br)cc2s1)c1cc(Br)cc(Br)c1O` [Compound 85, 3,5-dibromo-N-(6-bromobenzo[d]thiazol-2-3/1)-2-hydroxybenzamide], the MIC in data set [2] (setting [4]) was 1 µg/mL (≈ 1.97 µM). For the same compound, the IC50 in data set [1] was found to be 4.1 nM.

Consider `Clc1cc(Cl)cc(/C=C/c2cc3ccc(Br)cc3[nH]2)c1` [Compound 95, (E)-6-Bromo-2-(3,5-dichlorostyryl)-1H-indole], for which the minimum inhibitory concentration (MIC) in data set [2] (setting [3]) was 7.1 µg/mL (≈ 19.3 µM); in data set [2] (Table 8, tested at least in duplicate, differing values all given) it was 8 µg/mL (≈ 21.8 µM). In data set [1], this compound gave an IC50 of less than 50 nM.

For the compound `O=C(c1c(CCc2cc(Cl)cc(Cl)c2)[nH]c2cc(Br)ccc12)C(F)(F)F` [Compound 171, 1-(6-Bromo-2-(3,5-dichlorophenethyl)-1H-indol-3-yl)-2,2,2-trifluoroethanone], the MIC in data set [2] (setting [3]) was 1 µg/mL (≈ 2.15 µM). In data set [1], this compound yielded an IC50 greater than 1000 nM.

Take `Brc1ccc2cc(-c3ccc(-c4cc5ccc(Br)cc5[nH]4)cc3)[nH]c2c1` [Compound 33a, 1,4-bis(6-bromo-1H-indol-2-yl)benzene]: the MIC in data set [2] (setting [4]) is greater than 64 µg/mL. Moreover, in data set [1], the inhibition at 1 µM amounted to 54%.

`Clc1ccc(/C=C/c2cc3ccc(Br)cc3[nH]2)nc1` [Compound 108, (E)-6-Bromo-2-(2-(5-chloropyridin-2-yl)vinyl)-1H-indole]: the MIC in data set [2] (setting [3]) is greater than 64 µg/mL. The compound also had an IC50 in data set [1] of 100 to 1000 nM.

What is called EC50 is the concentration giving half of the maximal effect. Regarding `O=[N+]([O-])c1cc(/C=C/c2cc3ccc(Br)cc3[nH]2)ccc1Cl` [Compound 97, (E)-6-Bromo-2-(4-chloro-3-nitrostyryl)-1H-indole], in data set [2] (setting [3]), the MIC is greater than 64 µg/mL. The EC50 in data set [1] is 8.6 nM.

With `COc1c(Br)cccc1C(=O)Nc1nc2ccc(Br)cc2s1` [Compound 84, 3-Bromo-N-(6-bromobenzo[d]thiazol-2-yl)-2-methoxybenzamide], the minimum inhibitory concentration (MIC) in data set [2] (setting [4]) was greater than 64 µg/mL. The inhibition at 10 µM in data set [1] was determined as 84%.

As for `Cc1c(/C=C/c2ccc(Cl)cc2)[nH]c2cc(Br)ccc12` [Compound 160, (E)-6-bromo-2-(4-chlorostyryl)-3-methyl-1H-indole], the MIC in data set [2] (setting [3]) was greater than 64 µg/mL. Moreover, in data set [1], the IC50 is less than 50 nM.

As for `Clc1ccc(C#Cc2cc3ccc(Br)cc3[nH]2)nc1` [Compound 141, 6-bromo-2-((5-chloropyridin-2-yl)ethynyl)-1H-indole], in data set [2] (setting [3]), the MIC was greater than 64 µg/mL. The compound further yielded a 50% inhibitory concentration (IC50) in data set [1] of 100 to 1000 nM.

Regarding `COc1ccc(Br)cc1C(=O)Nc1nc2ccc(Br)cc2s1` [Compound 68, 5-Bromo-N-(6-bromobenzo[d]thiazol-2-yl)-2-methoxybenzamide], the minimal inhibitory concentration (MIC) in data set [2] (setting [4]) is greater than 64 µg/mL. Besides, in data set [1], it took 8.3 nM to reach half-maximal inhibition (IC50).

Consider `COc1ccc(NC(=O)c2[nH]c3cc(Br)ccc3c2C(=O)O)cc1` [Compound 134, 6-Bromo-2-((4-methoxyphenyl)carbamoyl)-1H-indole-3-carboxylic acid], for which the MIC in data set [2] (setting [3]) was determined as 64 µg/mL (≈ 164 µM). The compound also came in with an IC50 in data set [1] of less than 50 nM.

Take `O=C(Nc1nc2ccc(Br)cc2[nH]1)c1cc2ccc(Br)cc2[nH]1` [Compound 80, 6-Bromo-N-(6-bromo-1H-benzo[d]imidazol-2-yl)-1H-indole-2-carboxamide]: the MIC in data set [2] (setting [4]) was greater than 64 µg/mL. This compound also came in with an IC50 in data set [1] of 1.5 nM.

As to `Cn1c(C(=O)Nc2nc3ccc(Br)cc3s2)cc2ccccc21` [Compound 69, N-(6-Bromobenzo[d]thiazol-2-yl)-1-methyl-1H-indole-2-carboxamide], the MIC in data set [2] (setting [4]) was greater than 64 µg/mL. In data set [1], the inhibition at 10 µM stood at 61%.

With `c1ccc2[nH]c(-c3ccc(-c4cc5ccccc5[nH]4)cc3)cc2c1` [Compound 46], in data set [2] (setting [4]), the MIC was greater than 16 µg/mL. Besides, the inhibition at 10 µM in data set [1] worked out at 52%.

Take `COC(=O)c1c(NCc2cn3ccccc3n2)[nH]c2cc(Br)ccc12` [Compound 166, Methyl 6-bromo-2-(imidazo[1,2-a]pyridin-2-ylmethylamino)-1H-indole-3-carboxylate]: the MIC in data set [2] (setting [3]) is greater than 64 µg/mL. In addition, the IC50 in data set [1] is greater than 1000 nM.

Consider `Brc1cncc(/C=C/c2cc3ccc(Br)cc3[nH]2)c1` [Compound 100, (E)-6-Bromo-2-(2-(5-bromopyridin-3-yl)vinyl)-1H-indole], for which, in data set [2] (setting [3]), the MIC was greater than 64 µg/mL. In data set [1], this compound displayed a half-maximal inhibitory concentration (IC50) greater than 1000 nM.

Take `Brc1ccc2cc(-c3ccc(-c4cc5ccc(Br)cc5[nH]4)s3)[nH]c2c1` [Compound 33b, 2,5-bis(6-bromo-1H-indol-2-yl)thiophene]: in data set [2] (setting [4]), the MIC is greater than 64 µg/mL. The inhibition at 1 µM in data set [1] amounted to 28%.

On to `O=C(O)c1c(/C=C/c2cc(Cl)cc(Cl)c2)[nH]c2cc(Br)ccc12` [Compound 150, (E)-6-Bromo-2-(3,5-dichlorostyryl)-1H-indole-3-carboxylic acid], for which the MIC in data set [2] (setting [3]) came out at 8 µg/mL (≈ 19.5 µM). In data set [1], this compound gave an IC50 greater than 1000 nM.

Regarding `O=C(Nc1nc2ccc(Br)cc2s1)c1cc(Br)ccc1O` [Compound 51, 5-Bromo-N-(6-bromobenzo[d]thiazol-2-yl)-2-hydroxybenzamide], the minimal inhibitory concentration (MIC) in data set [2] (setting [4]) was greater than 64 µg/mL. In addition, in data set [1] (setting [5]), the 50% inhibitory concentration (IC50) is 3 nM.

Regarding `O=C(c1c(/C=C/c2ccc(Br)cn2)[nH]c2cc(Br)ccc12)C(F)(F)F` [Compound 174, (E)-1-(6-Bromo-2-(2-(5-bromopyridin-2-yl)vinyl)-1H-indol-3-yl)-2,2,2-trifluoroethanone], in data set [2] (setting [3]), the MIC was 32 µg/mL (≈ 67.5 µM). In data set [1], this compound returned an IC50 greater than 1000 nM.

On to `FC(F)(F)c1ccc(/C=C/c2cc3ccc(Br)cc3[nH]2)cc1` [Compound 102, (E)-6-Bromo-2-(4-(trifluoromethyl)styryl)-1H-indole], for which, in data set [2] (setting [3]), the MIC was found to be 64 µg/mL (≈ 175 µM). Moreover, the concentration for half-maximal inhibition (IC50) in data set [1] was 100 to 1000 nM.

With `O=C(Nc1ccc(Cl)cc1)c1cc2ccc(Br)cc2[nH]1` [Compound 128, 6-bromo-N-(4-chlorophenyl)-1H-indole-2-carboxamide], in data set [2] (setting [3]), the MIC was greater than 64 µg/mL. The IC50 in data set [1] amounted to 17 nM.

On to `Cn1c(C#Cc2cc3ccc(Br)cc3[nH]2)cc2ccc(Br)cc21` [Compound 26a, 6-bromo-2-((6-bromo-1H-indol-2-yl)ethynyl)-1-methyl-1H-indole], for which the MIC in data set [2] (setting [4]) was greater than 64 µg/mL. Further, the IC50 in data set [1] (setting [5]) came out at 13.7 nM.
